Measurements taken from patent US9957298B2, “Peptides as oxytocin agonists” (Hoffmann-La Roche Inc., priority 2014, dated 2018).
Starred links: 1 amine or outer side, 2 acyl side, 3 side chain; linkers in the order of their positions; H or OH if unused. Positions of bridges follow the written chain, without caps; N, C: chain ends. Non-standard residues stand in square brackets, D forms with d. Residues, ends and D or L forms follow the SMILES beside them. X1 = N[C@H](CC(=O)[*:1])C(=O)[*:2]; 2Thi = N[C@@H](Cc1cccs1)C(=O)O; Suc = O=C(CCC(=O)[*:2])[*:1]; NcPrGly = O=C(O)CNC1CC1; Dap = NC[C@H](N)C(=O)O; Aib = CC(C)(N)C(=O)O; Sar = CNCC(=O)O

Molecular target: T1, human Oxytocin (OTR) receptor (Homo sapiens, UniProt P30559)
T1 construct: expressed in transfected cells
T1 sequence (P30559 1-389): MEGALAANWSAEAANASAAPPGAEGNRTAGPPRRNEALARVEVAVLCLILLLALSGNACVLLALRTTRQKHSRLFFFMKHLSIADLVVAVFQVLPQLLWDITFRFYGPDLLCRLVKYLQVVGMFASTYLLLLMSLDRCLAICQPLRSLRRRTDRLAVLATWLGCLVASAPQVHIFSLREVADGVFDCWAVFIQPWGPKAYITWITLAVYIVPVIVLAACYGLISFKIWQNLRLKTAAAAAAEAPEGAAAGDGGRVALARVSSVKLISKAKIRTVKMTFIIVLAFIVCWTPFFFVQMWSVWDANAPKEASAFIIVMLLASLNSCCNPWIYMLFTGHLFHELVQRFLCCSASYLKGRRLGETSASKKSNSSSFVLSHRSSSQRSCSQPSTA
Assay: Calcium flux assay (FLIPR), agonist mode, CHO cells expressing human oxytocin receptor
Format: cell-based
Details: for EC50: CHO cells, human OTR, calcium flux FLIPR, read-out: hOT EC50; for Emax: CHO, read-out: hOT efficacy (%); for Emax / hOT efficacy (%): maximum response normalized to endogenous full agonist = 100%
Source text: Chines Hamster Ovary (CHO) cells were transfected with expression plasmids encoding either the human V1a, the human Oxytocin (OTR) or the human V2 receptor, the later in combination with the chimeric Gqs5 G protein to redirect the signal to Calcium flux. Stable cells were cloned by limiting dilution to yield monoclonal cell lines expressing either human V1a, human V2+Gqs5 or human OTR receptors and selected based on functional responses detected on a fluorometric imaging plate reader (FLIPR) detecting Calcium flux in the cell after receptor activation. The stable cell lines were grown in F-12 K Nutrient Mixture (Kaighns Modification), containing 10% foetal bovine serum (FBS), 1% penicillin-streptomycin, 1% L-[…], 200 ug/ml Geneticin at 37° C. in a 10% CO2 incubator at 95% humidity.
On the afternoon before the assay, cells were plated at a density of 50,000 cells/well into black 96 well plates with clear bottoms to allow cell inspection and fluorescence measurements from the bottom of each well. The density of cells was sufficient to yield a confluent monolayer the next day. Hanks balanced salt solution, without phenol red, containing 20 mM HEPES (pH 7.3) and 2.5 mM probenecid (assay buffer) was prepared fresh for each experiment. Compound dilutions were made using a Beckman Biomek 2000 laboratory automation workstation, in assay buffer containing 1% DMSO. The dye-loading buffer consisted of a final concentration of 2 μM Fluo-4-AM (dissolved in DMSO and pluronic acid) in assay buffer. The existing culture media was removed from the wells and 100 μl of the dye-loading buffer was added to each well and incubated for approximately 60 min at 37° C. in a 5% CO2 incubator at 95% humidity. Once dye-loaded, the cells were washed thoroughly on an Embla cell washer with the assay buffer to remove any unincorporated dye. Exactly 100 μl assay buffer was left in each well.
Each 96 well plate containing dye-loaded cells was placed into the FLIPR machine and the laser intensity set to a suitable level to detect low basal fluorescence. To test compounds as agonists, 25 μl diluted compound was added to the plate 10 seconds into the fluorescent measurements and fluorescent response was recorded for 5 minutes. The fluorescence data was normalized to the endogenous full agonist dose-response set at 100% for the maximum response and 0% for the minimum. Each agonist concentration-response curve was constructed using a four parameter logistic equation with Microsoft Excel XLFit as follows: Y=Minimum+((Maximum−Minimum)/(1+10^(LogEC50-X)nH)), where y is the % normalized fluorescence, minimum is the minimum y, maximum is the maximum y, logEC50 is the log10 concentration which produces 50% of the maximum induced fluorescence, x is the log10 of the concentration of the agonist compound and H is the slope of the curve (the Hill Coefficient). The maximum value gives the efficacy of the agonist test compound in percentage. The concentration of agonist that produced a half-maximal response is represented by the EC50 value, the logarithm of which yielded the pEC50 value.

EC50	Emax	hOT efficacy (%)	SMILES
0.8 nM	117%		CC[C@H](C)[C@@H]1NC(=O)[C@H](Cc2ccc(O)cc2)NC(=O)CCC(=O)NC[C@@H](C(=O)N(CC(=O)N[C@@H](CO)C(=O)NCC(N)=O)C2CC2)NC(=O)[C@H](CC(N)=O)NC(=O)[C@H](CCC(N)=O)NC1=O [Example 45] (YIQN[Dap][NcPrGly]SG-NH2; linker N-5 via Suc)
3 nM		128%	CC[C@H](C)[C@@H]1NC(=O)[C@H](Cc2ccc(O)cc2)NC(=O)CCC(=O)NC[C@@H](C(=O)N2CCC[C@H]2C(=O)N[C@@H](CO)C(=O)NCC(N)=O)NC(=O)[C@H](CC(N)=O)NC(=O)[C@H](CCC(N)=O)NC1=O [Example 11] (YIQN[Dap]PSG-NH2; linker N-5 via Suc)
2.5 nM	108%		CC[C@H](C)[C@@H]1NC(=O)[C@H](Cc2ccc(O)cc2)NC(=O)CCC(=O)NC[C@@H](C(=O)N(CC(=O)NC(C)(C)C(=O)NCC(N)=O)C2CC2)NC(=O)[C@H](CC(N)=O)NC(=O)[C@H](CCC(N)=O)NC1=O [Example 41] (YIQN[Dap][NcPrGly][Aib]G-NH2; linker N-5 via Suc)
0.9 nM	115%		CC[C@H](C)[C@@H]1NC(=O)[C@H](Cc2ccc(O)cc2)NC(=O)CCC(=O)NC[C@@H](C(=O)N(CC(=O)N[C@H](C(=O)NCC(N)=O)[C@@H](C)O)C2CC2)NC(=O)[C@H](CC(N)=O)NC(=O)[C@H](CCC(N)=O)NC1=O [Example 44] (YIQN[Dap][NcPrGly]TG-NH2; linker N-5 via Suc)
0.37 nM	115%		CC[C@@H](C)[C@@H](NC(=O)CN(C(=O)[C@@H]1CNC(=O)CCC(=O)N[C@@H](Cc2ccc(O)cc2)C(=O)N[C@@H]([C@@H](C)CC)C(=O)N[C@@H](CCC(N)=O)C(=O)N[C@@H](CC(N)=O)C(=O)N1)C1CC1)C(=O)NCC(N)=O [Example 42] (YIQN[Dap][NcPrGly][dI]G-NH2; linker N-5 via Suc)
5 nM		126%	CC[C@H](C)[C@@H]1NC(=O)[C@H](Cc2ccc(O)cc2)NC(=O)C[C@@H](N)C(=O)NC[C@@H](C(=O)N(C)CC(=O)N[C@@H](CC(C)C)C(=O)NCC(N)=O)NC(=O)[C@H](CC(N)=O)NC(=O)[C@H](CCC(N)=O)NC1=O [Example 4] (YIQN[Dap][Sar]LG-NH2; linker N-5 via X1)
1 nM		130%	CC[C@H](C)[C@@H]1NC(=O)[C@H](Cc2ccc(O)cc2)NC(=O)CCC(=O)NC[C@@H](C(=O)N2CCC[C@H]2C(=O)N[C@H](C(=O)NCC(N)=O)[C@@H](C)O)NC(=O)[C@H](CC(N)=O)NC(=O)[C@H](CCC(N)=O)NC1=O [Example 10] (YIQN[Dap]PTG-NH2; linker N-5 via Suc)
0.6 nM	106%		CC[C@H](C)[C@@H]1NC(=O)[C@H](Cc2ccc(O)cc2)NC(=O)CCC(=O)NC[C@@H](C(=O)N(CC(=O)N[C@@H](C(=O)NCC(N)=O)C(C)C)C2CC2)NC(=O)[C@H](CC(N)=O)NC(=O)[C@H](CCC(N)=O)NC1=O [Example 40] (YIQN[Dap][NcPrGly][dV]G-NH2; linker N-5 via Suc)
8 nM		123%	CC[C@H](C)[C@@H]1NC(=O)[C@H](Cc2ccc(O)cc2)NC(=O)CCC(=O)NC[C@@H](C(=O)N2CCC[C@H]2C(=O)N[C@@H](Cc2cnc[nH]2)C(=O)NCC(N)=O)NC(=O)[C@H](CC(N)=O)NC(=O)[C@H](CCC(N)=O)NC1=O [Example 15] (YIQN[Dap]PHG-NH2; linker N-5 via Suc)
4 nM		126%	CC[C@H](C)[C@@H]1NC(=O)[C@H](Cc2ccc(O)cc2)NC(=O)CCC(=O)NC[C@@H](C(=O)N2CCC[C@H]2C(=O)N[C@@H](Cc2cccs2)C(=O)NCC(N)=O)NC(=O)[C@H](CC(N)=O)NC(=O)[C@H](CCC(N)=O)NC1=O [Example 21] (YIQN[Dap]P[2Thi]G-NH2; linker N-5 via Suc)
